From the supplement of paper PMC10307832

Tests used:
Assay in all cases: relative viability (nuclei count vs DMSO), 5 days (fraction); higher = more cells survive
[1] = compound: COC1=CC=C(C=C1)CN2C=CC3=C2C=C(C=C3)C(=O)NO + CC(=O)Nc1cccc(-n2c(=O)n(C3CC3)c(=O)c3c(Nc4ccc(I)cc4F)n(C)c(=O)c(C)c32)c1 [Trametinib] (partner 0.02 µM)
Procedure, shortened: (§1)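 Relative viability divides the nuclei count in treated wells by that in vehicle wells. Lung cancer cell lines were seeded in 1536-well plates, dosed by pin tool the next day, and fixed and stained after 5 days in one step with final 0.05% Triton X-100, 1% formaldehyde and 1 ug/ml Hoechst. Dosing was a single drug or a fixed anchor-drug dose plus five library-drug doses (not always all listed) in √10 steps, and values are medians of duplicate plates imaged at 4×.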

[2] = compound: COC1=CC=C(C=C1)CN2C=CC3=C2C=C(C=C3)C(=O)NO + CC(=O)c1c(C)c2cnc(Nc3ccc(N4CCNCC4)cn3)nc2n(C2CCCC2)c1=O [Palbociclib] (partner 0.5 µM)
Procedure, shortened: as §1

[3] = compound: COC1=CC=C(C=C1)CN2C=CC3=C2C=C(C=C3)C(=O)NO + CC1(C)CCC(c2ccc(Cl)cc2)=C(CN2CCN(c3ccc(C(=O)NS(=O)(=O)c4ccc(N[C@H](CCN5CCOCC5)CSc5ccccc5)c(S(=O)(=O)C(F)(F)F)c4)cc3)CC2)C1 [Navitoclax] (partner 0.5 µM)
Procedure, shortened: as §1

[4] = compound: COC1=CC=C(C=C1)CN2C=CC3=C2C=C(C=C3)C(=O)NO + C[C@]1(O)C[C@@H](c2nc(-c3ccc4ccc(-c5ccccc5)nc4c3)c3c(N)nccn32)C1 [Linsitinib] (partner 1 µM)
Procedure, shortened: as §1

| Cell Line | relative viability ([1]; first compound 0.08 µM) | relative viability ([1]; first compound 0.253 µM) | relative viability ([1]; first compound 0.8 µM) | relative viability ([1]; first compound 2.53 µM) | relative viability ([1]; first compound 8 µM) | relative viability ([2]; first compound 0.08 µM) | relative viability ([2]; first compound 0.253 µM) | relative viability ([2]; first compound 0.8 µM) | relative viability ([2]; first compound 2.53 µM) | relative viability ([2]; first compound 8 µM) | relative viability ([3]; first compound 0.08 µM) | relative viability ([3]; first compound 0.253 µM) | relative viability ([3]; first compound 0.8 µM) | relative viability ([3]; first compound 2.53 µM) | relative viability ([3]; first compound 8 µM) | relative viability ([4]; first compound 0.08 µM) | relative viability ([4]; first compound 0.253 µM) | relative viability ([4]; first compound 0.8 µM) | relative viability ([4]; first compound 2.53 µM) | relative viability ([4]; first compound 8 µM) |
| --- | --- | --- | --- | --- | --- | --- | --- | --- | --- | --- | --- | --- | --- | --- | --- | --- | --- | --- | --- | --- |
| NCI-H2228 | 0.386 | 0.664 | 0.831 | 0.598 | 0.433 | 0.544 | 0.825 | 0.904 | 0.685 | 0.573 | 0.955 | 1.19 | 1.04 | 1.1 | 0.411 | 0.77 | 0.733 | 0.971 | 0.578 | 0.58 |
| NCI-H2347 | 0.268 | 0.313 | 0.303 | 0.283 | 0.235 | 0.422 | 0.445 | 0.472 | 0.441 | 0.428 | 0.579 | 0.883 | 0.843 | 0.968 | 0.762 | 0.697 | 0.918 | 1.03 | 0.982 | 0.877 |
| NCI-H2405 | 0.544 |  | 0.641 | 0.686 | 0.625 | 0.476 |  | 0.55 | 0.513 | 0.481 | 0.534 | 0.82 | 0.764 | 0.775 | 0.66 | 0.66 | 0.932 | 0.915 | 0.915 | 0.794 |
| NCI-H3122 | 0.276 | 0.13 | 0.225 | 0.217 | 0.222 | 0.196 | 0.173 | 0.204 | 0.167 | 0.194 | 1.01 | 1 | 1.02 | 1.02 | 1.03 | 0.975 | 1.04 | 1.03 | 1 | 0.997 |
| PC-3 [JPC-3] | 0.641 |  | 0.75 | 0.702 | 0.683 | 0.562 |  | 0.559 | 0.55 | 0.535 | 0.822 | 0.831 | 0.83 | 0.859 | 0.74 | 0.963 | 0.962 | 0.97 | 1 | 1.06 |
| PC-14 | 0.741 | 0.687 | 0.753 | 0.722 | 0.734 | 0.533 | 0.599 | 0.567 | 0.509 | 0.535 | 0.869 | 1.04 | 1.01 | 1.14 | 1.02 | 0.894 | 0.959 | 0.936 | 1.04 | 0.944 |
| RERF-LC-KJ | 0.865 | 1.06 | 0.827 | 0.892 | 0.809 | 1.05 | 1.1 | 1.07 | 1.09 | 1.05 | 0.934 | 0.852 | 0.903 | 1.04 | 0.926 | 0.763 | 0.883 | 0.867 | 0.901 | 0.945 |
| SK-LU-1 | 0.347 | 0.537 | 0.51 | 0.579 | 0.447 | 0.385 | 0.374 | 0.422 | 0.434 | 0.341 | 0.849 | 1 | 1 | 0.815 | 0.745 | 0.998 | 1.3 | 1.08 | 1.29 | 0.888 |
| SK-MES-1 | 0.549 | 0.551 | 0.549 | 0.586 | 0.575 | 0.357 | 0.324 | 0.299 | 0.287 | 0.31 | 1.2 | 1.3 | 1.26 | 1.2 | 1.02 | 1.03 | 1.05 | 1.12 | 1.14 | 1.01 |
| SW 1573 |  | 0.539 | 0.678 | 0.562 | 0.37 |  | 0.397 | 0.474 | 0.392 | 0.326 |  | 0.943 | 1.19 | 0.961 | 0.946 |  | 0.835 | 0.761 | 0.666 | 0.514 |
| UMC-11 | 0.225 | 0.708 | 0.712 | 0.735 | 0.666 |  | 0.361 | 0.29 | 0.331 | 0.343 | 0.197 | 0.341 | 0.316 | 0.317 | 0.339 | 0.891 | 0.974 | 1.06 | 0.959 | 0.938 |
